The values below come from patent US20100184770A1, “COMPOUNDS” (Glaxo Group Limited, priority 2006, published 2010).

Where a name gives a salt, the structure may show the parent alone.

In this test the target is T1, human H1 receptor (Homo sapiens, UniProt P35367).
T1 construct: expressed in transfected cells
T1 sequence (P35367 whole entry): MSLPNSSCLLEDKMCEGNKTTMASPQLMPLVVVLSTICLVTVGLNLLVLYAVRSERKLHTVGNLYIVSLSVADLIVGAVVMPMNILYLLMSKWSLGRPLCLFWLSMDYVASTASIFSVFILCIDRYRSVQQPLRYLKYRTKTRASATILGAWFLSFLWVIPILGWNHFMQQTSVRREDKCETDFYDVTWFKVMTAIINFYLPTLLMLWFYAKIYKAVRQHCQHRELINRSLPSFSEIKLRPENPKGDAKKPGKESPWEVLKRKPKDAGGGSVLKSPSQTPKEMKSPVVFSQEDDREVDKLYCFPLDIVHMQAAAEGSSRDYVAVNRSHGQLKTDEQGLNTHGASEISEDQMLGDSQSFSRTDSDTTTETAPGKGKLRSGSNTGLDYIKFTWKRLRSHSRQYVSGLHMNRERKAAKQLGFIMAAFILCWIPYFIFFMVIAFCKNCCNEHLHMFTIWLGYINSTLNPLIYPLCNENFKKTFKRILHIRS
The test can be described thus: Histamine H1 functional antagonist assay: determination of antagonist duration (washout, FLIPR). Type of test: cell-based. Conditions: at one or more time points after washout. Here is the method:
1. Generation of Histamine H1 Cell Line The human H1 receptor is cloned using known procedures described in the literature [Biochem. Biophys. Res. Commun., 201(2):894 (1994)]. Chinese hamster ovary (CHO) cells stably expressing the human H1 receptor are generated according to known procedures described in the literature [Br. J. Pharmacol., 117(6):1071 (1996)].
To determine the antagonist duration, cells are cultured overnight in non-coated black-walled clear bottom 96-well tissue culture plates, are washed with PBS and are incubated with a concentration of antagonist chosen to give an approximate DR in the range 30-300. Following the 30 min antagonist incubation period, the cells are washed two or three times with 200 μl of PBS and then 100 μl Tyrodes buffer is added to each well to initiate antagonist dissociation. Following incubation for predetermined times, typically 30-270 min at 37° C., the cells are then washed again with 200 μl PBS and are incubated with 100 Tyrodes buffer containing Brilliant Black, probenecid and Fluo-4 for 45 min at 37° C., as described above. After this period, the cells are challenged with histamine in the FLIPR™ as described above. The dose ratio at each time point is used to determine the fractional H1 receptor occupancy by the following equation: fractional receptor occupancy=(DR-1)/DR. The decrease in receptor occupancy over time approximates to a straight line and is analysed by linear regression. The slope of this straight line fit is used as an index of the dissociation rate of the antagonist. The dose ratios for antagonist treated cells and for antagonist treated and washed cells at each time point are used to calculate a relative dose ratio (rel DR) which is also used as an index of antagonist duration. Antagonists with long duration of action produce rel DR values close to 1, and antagonists with short duration of action produce rel DR values that approaches the dose ratio value obtained for antagonist treatment alone.
On to `CC(C)(C)NC(=O)CN1CCCC1Cn1nc(Cc2ccc(Cl)cc2)c2ccccc2c1=O.O=C(O)C(F)(F)F` [Example 30, 2-((2R)-2-{[4-[(4-chlorophenyl)methyl]-1-oxo-2(1H)-phthalazinyl]methyl}-1-pyrrolidinyl)-N-(1,1-dimethylethyl) acetamide, trifluoroacetate], for which the “duration of action compared with azelastine in the histamine H1 functional antagonist assay” value is given as “longer duration of action than azelastine”. As to `O=C(CCN1CCC[C@@H]1Cn1nc(Cc2ccc(Cl)cc2)c2ccccc2c1=O)NCC(F)(F)F` [Example 4, 3-((2R)-2-{[4-[(4-chlorophenyl)methyl]-1-oxo-2(1H)-phthalazinyl]methyl}-1-pyrrolidinyl)-N-(2,2,2-trifluoroethyl)propanamide], the “duration of action compared with azelastine in the histamine H1 functional antagonist assay” value is given as “longer duration of action than azelastine”. In the case of `O=C(CCN1CCC[C@@H]1Cn1nc(Cc2ccc(Cl)cc2)c2ccccc2c1=O)NCCF.O=C(O)C(F)(F)F` [Example 1, 3-((2R)-2-{[4-[(4-Chlorophenyl)methyl]-1-oxo-2(1H)-phthalazinyl]methyl}-1-pyrrolidinyl)-N-(2-fluoroethyl)propanamide, trifluoroacetate], the “duration of action compared with azelastine in the histamine H1 functional antagonist assay” value is “longer duration of action than azelastine”. `COCCCC(=O)NCCN1CCC[C@@H]1Cn1nc(Cc2ccc(Cl)cc2)c2cnccc2c1=O` [Example 70, N-[2-((2R)-2-{[4-[(4-chlorophenyl)methyl]-1-oxopyrido[3,4-d]pyridazin-2(1H)-yl]methyl}-1-pyrrolidinyl)ethyl]-4-(methyloxy)butanamide, trifluoroacetate]: the “duration of action compared with azelastine in the histamine H1 functional antagonist assay” value was “longer duration of action than azelastine”. `CC(C)C(=O)NCCN1CCC[C@@H]1Cn1nc(Cc2ccc(Cl)cc2)c2ccccc2c1=O.O=C(O)C(F)(F)F` [Example 41, N-[2-((2R)-2-{[4-[(4-chlorophenyl)methyl]-1-oxo-2(1H)-phthalazinyl]methyl}-1-pyrrolidinyl)ethyl]-2-methylpropanamide, trifluoroacetate]: the “duration of action compared with azelastine in the histamine H1 functional antagonist assay” value is listed as “longer duration of action than azelastine”. In the case of `COCC(=O)NCCN1CCC[C@@H]1Cn1nc(Cc2ccc(Cl)cc2)c2ccccc2c1=O.O=C(O)C(F)(F)F` [Example 39, N-[2-((2R)-2-{[4-[(4-chlorophenyl)methyl]-1-oxo-2(1H)-phthalazinyl]methyl}-1-pyrrolidinyl)ethyl]-2-(methyloxy)acetamide, trifluoroacetate], the “duration of action compared with azelastine in the histamine H1 functional antagonist assay” value was “longer duration of action than azelastine”. As for `CC(C)(C)C(=O)NCCCN1CCC[C@@H]1Cn1nc(Cc2ccc(Cl)cc2)c2cnccc2c1=O.O=C(O)C(F)(F)F` [Example 80, N-[3-((2R)-2-{[4-[(4-chlorophenyl)methyl]-1-oxopyrido[3,4-d]pyridazin-2(1H)-yl]methyl}-1-pyrrolidinyl)propyl]-2,2-dimethylpropanamide, trifluoroacetate], the “duration of action compared with azelastine in the histamine H1 functional antagonist assay” value is recorded as “longer duration of action than azelastine”.
